Assays:
Tyrosinase = target: T1, Tyrosinase (Agaricus bisporus, UniProt O42713); assay: Inhibition of mushroom tyrosinase
T1 sequence (O42713 whole entry): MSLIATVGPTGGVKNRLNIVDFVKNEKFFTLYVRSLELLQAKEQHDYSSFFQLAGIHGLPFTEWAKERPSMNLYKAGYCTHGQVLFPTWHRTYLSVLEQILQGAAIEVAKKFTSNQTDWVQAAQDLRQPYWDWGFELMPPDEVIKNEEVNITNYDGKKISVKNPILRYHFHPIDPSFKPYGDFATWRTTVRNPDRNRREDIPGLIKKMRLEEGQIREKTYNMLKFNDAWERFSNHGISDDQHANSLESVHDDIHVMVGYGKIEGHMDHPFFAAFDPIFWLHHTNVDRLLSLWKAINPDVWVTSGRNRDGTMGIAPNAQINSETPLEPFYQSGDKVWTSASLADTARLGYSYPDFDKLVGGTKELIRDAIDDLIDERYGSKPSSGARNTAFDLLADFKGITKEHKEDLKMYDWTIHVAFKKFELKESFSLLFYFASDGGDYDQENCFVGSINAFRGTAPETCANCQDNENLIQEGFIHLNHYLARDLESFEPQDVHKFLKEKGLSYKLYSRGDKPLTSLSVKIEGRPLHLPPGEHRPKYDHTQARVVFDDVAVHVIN

[1] = Cytotoxicity against mouse Melan-a cells assessed as cell survival at 100 uM; assay type: cell-based; details: read-out: Survival
cells = details: Mus musculus, Melan-a
Description: Depigmenting activity in mouse Melan-a cells assessed as melanin production

[2] = Cytotoxicity against mouse Melan-a cells assessed as cell survival at 80 uM; assay type: cell-based; details: read-out: Survival
[3] = Cytotoxicity against mouse Melan-a cells at 46.64 uM; assay type: cell-based
[4] = Cytotoxicity against mouse Melan-a cells assessed as cell survival at 50 uM; assay type: cell-based; details: read-out: Survival

SMILES | IC50 (Tyrosinase) [µM] | viability at 100 µM [1] [%] | IC50 (cells) [µM] | viability at 80 µM [2] [%] | Activity [3] | viability at 50 µM [4] [%]
O=C(/C=C/c1ccc2c(c1)OCO2)OCc1cc(=O)c(O)co1 | 1.53 | 97.1 | > 100 |  |  | 
O=C(/C=C/c1ccc2c(c1)OCO2)Oc1coc(CO)cc1=O | > 200 |  | 46.6 | 98.9 | Non-toxic | 
O=C(/C=C/c1ccc2c(c1)OCO2)OC(=O)/C=C/c1ccc2c(c1)OCO2 | > 100 | 97.1 | > 100 |  |  | 
O=C(/C=C/c1ccc2c(c1)OCO2)OCc1cc(=O)c(OCc2cc(=O)c(O)co2)co1 | > 100 |  | 23.5 |  |  | 95.9
